The values below are quoted from earlier work in patent publication US20160184212A1, “PHOTO-ACTIVATED HYDROGELS” (L'Oreal, priority 2014, published 2016).

Structures are written as SMILES.

For `O=C1c2ccccc2C(=O)c2cc(S(=O)(=O)[O-])ccc21.[Na+]` [anthraquinone-2-sulfonic acid sodium salt], the water solubility result is listed as “water soluble”.
